The source of these data is ChEMBL document CHEMBL4828728, “Antiplasmodial 2-thiophenoxy-3-trichloromethyl quinoxalines target the apicoplast of Plasmodium falciparum” (Eur J Med Chem, 2021).

Series [1] in a line: Genotoxicity in human HepG2 cells assessed as induction of alkali labile sites at 1 mM measured after 2 hrs by alkali comet assay. Particulars: hepg2, 1000 µM.
Series [2] in a line: Genotoxicity in human HepG2 cells assessed as induction of DNA strand breaks at 1 mM measured after 2 hrs by alkali comet assay. The note with it: hepg2, 1000 µM.

Consider `COS(C)(=O)=O` [METHANESULFONIC ACID METHYL ESTER], for which the Activity result in series [1] and in series [2] was “Toxic” in each case.
